# Tested on: aad-4 riboswitch RNA (aad-4 leader RNA) (RNA, riboswitch) GGAGCAGCAACGAUGUUACGCAGCAGGGCAGUCGCCCUAAACAAAGUUAGGCCGCAUGGACACAACGCAGGUCACAUUGAUACACCAAAUUCUAGCUGCGGCAGAUGAGCGAAAU
# Assay: MicroScale Thermophoresis
# Conditions: 100 mM KCl, 0.1 mM MgCl2; 10 mM HEPES pH 7.5; FTSC-labelled RNA
row,Kd [µM],SMILES
1,10,NC[C@@H]1O[C@H](O[C@H]2[C@@H](O)[C@H](O[C@@H]3[C@@H](O)[C@H](N)C[C@H](N)[C@H]3O[C@H]3O[C@H](CO)[C@@H](O)[C@H](O)[C@H]3N)O[C@@H]2CO)[C@H](N)[C@@H](O)[C@@H]1O
2,12,NC[C@H]1O[C@H](O[C@H]2[C@H](O)[C@@H](O)[C@H](N)C[C@@H]2N)[C@H](N)[C@@H](O)[C@@H]1O
3,40,NC[C@H]1O[C@H](O[C@H]2[C@H](O[C@@H]3O[C@H](CO)[C@@H](O)[C@H]3O)[C@@H](O)[C@H](N)C[C@@H]2N)[C@H](N)[C@@H](O)[C@@H]1O

# Same assay, conditions: 100 mM KCl, 0.1 mM MgCl2; 10 mM HEPES pH 7.5; FTSC-labelled RNA; only group range 1.2–3.9 µM given
row,Kd [µM],SMILES
1,2.16 ± 0.25,CN[C@@H]1[C@@H](O)[C@@H](O[C@@H]2[C@@H](O)[C@H](O[C@H]3OC(CN)=CC[C@H]3N)[C@@H](N)C[C@H]2N)OC[C@]1(C)O
2,1.58 ± 0.28,NC[C@H]1O[C@H](O[C@H]2[C@H](O)[C@@H](O[C@H]3O[C@H](CO)[C@@H](O)[C@H](N)[C@H]3O)[C@H](N)C[C@@H]2N)[C@H](N)C[C@@H]1O
3,2.55 ± 0.24,NC[C@H]1O[C@H](O[C@H]2[C@H](O)[C@@H](O[C@H]3O[C@H](CO)[C@@H](O)[C@H](N)[C@H]3O)[C@H](N)C[C@@H]2N)[C@H](N)[C@@H](O)[C@@H]1O

# From PMC7588185 (2020)
